Measured values: publication PMC8169650, “Identification of Small Molecule Inhibitors of a Mir155 Transcriptional Reporter in Th17 Cells” (Scientific Reports, 2021)

Tests used:
Mir155 reporter = Mir155 reporter Beta-Glo HTS assay (β-gal activity); format: cell-based, mouse; settings: for EC50: Mus musculus, β-gal signal, 48 h, read-out: EC50, inhibition of Mir155 reporter expression; for EC50 / effect on Mir155 reporter expression: Th17 cells from Mir155 reporter mice; for effect on Mir155 reporter expression: dose response
Protocol: To develop an assay for the HTS screen, CD4^+ T cells were purified from spleen and lymph nodes of the Mir155 reporter mice. The purified CD4^+ T cells were cultured under Th17 cell-polarizing conditions in twelve well plates following which differentiated Th17 cells were transferred and expanded in six well plates followed by a resting period of 2 days in T cell media (schema depicted in Fig. 1a). We first optimized the cell number to maximize the assay window. To this end, differentiated Th17 cells were plated at different cell densities in the wells of polystyrene 1536-well plates under Th17 polarizing conditions. T cell activation was accomplished using two protocols. In the first protocol, magnetic beads coupled to anti-CD3 and anti-CD28 antibodies (CD3/CD28 microbeads) were added to mediate T cell activation as induction of MiR155 expression requires engagement of the TCR CD3 complex (signal 1) plus the co-stimulatory molecule CD28 (signal 2). The cells along with the beads were incubated at 37 °C, 5% CO2 for 48 h and, subsequently, high-throughput quantitation of β-gal activity was performed after 30 min of incubation using the Beta-Glo Assay system (Fig. 1b).
The NPC collection was screened at seven concentrations (top concentration 46 µM; 1:5 dilution thereafter) and drug response curves for the compounds were generated using our qHTS curve class classification algorithm as described above.
CD4^+ cells were purified from spleens and lymph nodes of Mir155 reporter mice as described above. Briefly, single cell suspensions were prepared by mechanical disruption followed by lysis of red blood cells with 0.83% ammonium chloride. CD4^+ T cells were either isolated by FACS sorting (BD FACS Aria) or were positively selected using magnetic CD4 microbeads (Miltenyi Biotec)[43]. 1 million CD4^+ cells/well were cultured in anti-CD3/CD28 (1 µg/ml each) coated 12 well plates under Th17 polarization conditions following which differentiated Th17 cells were transferred and expanded in six well plates followed by a resting period of 2 days in T cell media. A cocktail containing 10 ng/ml each of IL-6, IL-1 β, IL-21 and TGF-β (0.5 ng/ml) and IFNγ, IL-4, IL-12 neutralizing antibodies (10 μg/ml) was used for the Th17 polarizing conditions. For the HTS assay, 2000 differentiated Th17 cells/well in Th17 polarizing media were added to Greiner-one high base solid bottom white tissue culture treated 1536 well plates (catalog # 789173-F) using a small cassette and a Multidrop Combi dispenser (Thermo Fisher Scientific Inc.,Waltham, MA). Compounds were added using a Kalypsys pintool (Columns 5–48) and magnetic beads coupled to anti-CD3 and anti-CD28 (CD3/CD28 microbeads) were added to mediate T cell activation. CD3/CD28 microbeads were not added to first 2 columns and those wells served as basal control. DMSO was added to columns 3 and 4 and served as 100% signal. The plates were incubated for 48 h at 37 °C, 5% CO2, 95% humidity covered with low evaporation stainless steel lids from Kalypsys. After 48 h of incubation, 5 µl of Beta-Glo reagent (Beta Glo Assay System, Promega) was added using a Bioraptor Flying Reagent Dispenser (Aurora Discovery-BD) and the plates were incubated at room temperature for 30 min. Luminescence signal was captured using a 10 s exposure with a ViewLux (Perkin Elmer) containing a luminescent filter. Beta Glo reagent consists of Beta Glo substrate and buffer that are combined to form the Beta Glo reagent (Beta Glo Assay System, Promega).

[1] = tested on: IL-17 production in Th17 cells; test: Intracellular IL-17 flow cytometric cytokine assay under Th17 polarization; format: cell-based, mouse; settings: for IL-17+ cells, gated on live CD4+CD44high cells / inhibition at 20 µM: 20 µM; for IL-17+ cells, gated on live CD4+CD44high cells: DMSO 32% (panel b), 36.8% (panel c); for inhibition at 20 µM: Mus musculus, 96 h, day 4, C57BL/6 CD4+ T cells, read-out: down-regulation (inhibition) of IL-17 production compared to control
Protocol: (§1) It has been previously shown that IL-17 production is defective in miR-155 deficient cells. […] To test the hit compounds for IL-17 downregulation, we purified naive CD4^+ T cells from C57BL/6 mice and cultured them under Th17 polarization condition. Small molecules at multiple concentrations (20 µM, 10 µM and 5 µM) were added 18 h post-plating of CD4^+ T cells on anti-CD3/CD28 coated plates and again on day 2 of culture (schema depicted in Fig. 3a).
(§2) Spleens and lymph nodes were harvested from mice and single cell suspensions were prepared by mechanical disruption followed by lysis of red blood cells with 0.83% ammonium chloride. CD4^+ T cells were either isolated by FACS sorting (BD FACS Aria) or were positively selected using magnetic CD4 microbeads (Miltenyi Biotec). For intracellular IL-17 quantitation by flow cytometry, 0.25 million cells/ well were plated in anti-CD3/CD28 (1 µg/ml) coated 48 well plates. A cocktail containing 10 ng/ml each of IL-6, IL-1 β, IL-21 and TGF-β (0.5 ng/ml) and IFNγ, IL-4, IL-12 neutralizing antibodies (10 μg/ml) was used for the Th17 polarizing conditions. All recombinant cytokines were purchased from R&D Systems and crosslinking antibodies were purified from hybridomas (Harlan). Cells were treated with small molecules at indicated concentrations at 18 h and 48 h of cell plating. On day 4 of the culture, cells were stimulated with 20 ng/ml of phorbol 12-myristate 13-acetate (PMA) and ionomycin (1 μg/ml) for 4 h in the presence of brefeldin A. Following stimulation, cells were stained with fixable viability dye (eBioscience) and surface stained for CD44 and CD4, permeabilized using cytofix/cytoperm (BD biosciences) and subsequently, stained for intracellular IL-17. Foxp3/Transcription Factor Staining kit (eBioscience) kit was used for intranuclear staining of RORγt. Samples were acquired on BD Fortessa and analyzed using Flowjo (Tree star Inc).

Th17 cells = test: RNA-seq of CD4+ T cells under Th17 polarizing conditions; format: cell-based, mouse; settings: 20 µM, 24 h, vs DMSO
Source text: The (E)-1-(phenylsulfonyl)-2-styryl-1H-benzo[d] imidazoles were identified from the diversity library and the target for these compounds is not known. We investigated the possible molecular mechanism(s) regulating impaired Th17 cell function using whole-transcriptome RNA-sequencing (RNA-seq) of CD4^+ T cells treated with NCGC00108246 or NCGC00108250 (representative imidazole compounds) under Th17 polarizing conditions. We performed differential gene expression to compare the two imidazole-treated conditions (n = 6) to DMSO (n = 3). Imidazole treated samples (NCGC00108246 or NCGC00108250) had similar gene expression profiles and clustered together, and distinct from DMSO. […] We confirmed down-regulation of IL-17 cytokines (IL-17a and IL-17f.) in NCGC00108246 or NCGC00108250 treated cells (Fig. 4a,b). […] In alignment with the protein data, transcript levels for Th17 cell-specific transcription factor RORγt encoded by Rorc gene were not affected after treatment with imidazoles (Fig. S2b,c).
For RNA seq, T cells were treated with compounds for 24 h in Th17 polarizing conditions, following which RNA was extracted using the mirVana kit (Applied Biosystems). Qubit RNA broad range assay in the Qubit Flurometer (Invitrogen) was used to measure RNA concentration, following which RNA integrity was determined with Eukaryote Total RNA Nano Series II ChIP on a 2100 Bioanalyzer (Agilent). TruSeq RNA sample preparation kit (Illumina) was used to prepare RNA-seq libraries. Briefly, oligo-dT purified mRNA was fragmented and subjected to first and second strand cDNA synthesis. cDNA fragments were blunt ended, ligated to Illumina adaptors and PCR amplified to enrich for the fragments ligated to adaptors. The resulting cDNA libraries were verified and quantified on Agilent Bioanalyzer and single-end 96 cycle sequencing was conducted (Illumina) as previously described.
For data analysis, RNA-seq reads were aligned to the mm10 genome and the GRCm38 v87 transcriptome with STAR v2.5.2a[44] using default parameters and output tracks normalized by RPM (–outWigNorm RPM). RSEM v1.3[45] was used to calculate gene counts and TPMs on the transcriptome-aligned reads as previously described[16],[43]. Differential expression analysis was performed in R v3.5.2, using DESeq2[46] v1.22.2, resulting in 2328 differentially expressed genes when contrasting NCGC00108246 or NCGC00108250 treated samples versus DMSO controls. […] The volcano plot was generated with the R package (R-project.org at https://www.R-project.org/), Enhanced Volcano. Heatmaps were generated with the R package, pheatmap. Integrative Genomics Viewer v2.4.19[48] was used for visualization of normalized bigwig tracks.

CD4+ T cells = test: Viability dye and CD44 activation staining in the IL-17 flow cytometric assay; format: cell-based; settings: Fig. S2a
Protocol: as §1, §2

[2] = fresh batch compared to older batch

| SMILES | EC50 (Mir155 reporter) | IL-17+ cells, gated on live CD4+CD44high cells [1] | inhibition at 20 µM [1] | effect on Mir155 reporter expression (Mir155 reporter) | also measured |
| --- | --- | --- | --- | --- | --- |
| CCOc1ccc(/C=C/c2nc3ccccc3n2S(=O)(=O)c2ccc(Br)cc2)cc1 [NCGC00108244] | 12600 nM | 30.4% | 17% |  |  |
| CCOc1ccc(/C=C/c2nc3ccccc3n2S(=O)(=O)c2cccc(Cl)c2)cc1 [NCGC00108246] | 3500 nM | 3.1% | 90% |  | IL-17a and IL-17f transcripts (Th17 cells): down-regulation; IL-22 and IL-23r transcripts (Th17 cells): down-regulated |
| CSc1ccc(/C=C/c2nc3ccccc3n2S(=O)(=O)c2ccc(Br)cc2)cc1 [NCGC00108248, (E)-1-((4-bromophenyl)sulfonyl)-2-(4-(methylthio)styryl)-1H-benzo[d] imidazole] | 2200 nM | 3.8% | 90% |  | activity in miR-155 HTS assay, solutions of fresh powders (Mir155 reporter; [2]): inactive or demonstrated attenuated activity; inhibition of IL-17, solutions of fresh powders [1, 2]: not potent inhibitors of IL-17 |
| CSc1ccc(/C=C/c2nc3ccccc3n2S(=O)(=O)c2cccc(Cl)c2)cc1 [NCGC00108250] | 2000 nM | 4.4% | 88% |  | IL-17 / RORγt plot, percent cells, gated on live CD4+CD44high ([1]; Fig. S2b, DMSO 32.4% / 21.2%): 3.2%; IL-17a and IL-17f transcripts (Th17 cells): down-regulation; IL-22 and IL-23r transcripts (Th17 cells): down-regulated; live cells (fixable viability dye, Live-dead) (CD4+ T cells; DMSO 77.4% / 80.6%): 80.5%; CD4+ CD44+ cells (CD4+ T cells; DMSO 97.2% / 98.2%): 96.1% |
| Cc1ccc(/C=C/c2nc3ccccc3n2S(=O)(=O)c2cccc(Cl)c2)cc1 [NCGC00140605] | 600 nM | 13.1% | 65% |  |  |
| Cc1ccc(/C=C/c2nc3ccccc3n2S(=O)(=O)c2ccc(Br)cc2)cc1 [NCGC00140607] | 3700 nM | 16.6% | 55% |  |  |
| CSc1ccc(/C=C/c2nc3ccccc3[nH]2)cc1 [NCGC00507974, (E)-2-(4-(methylthio)styryl)-1H-benzo[d] imidazole] | 1200 nM |  |  | dose dependent reduction of Mir155 reporter expression | effect on IL-17 production ([1]; C57BL/6 CD4+ T cells, Th17 polarization): dose-dependent inhibition of IL-17 production |
| c1ccc(-c2ccc(C(c3ccccc3)n3ccnc3)cc2)cc1 (stereo not shown) [bifonazole, reference compound] |  |  |  | either modest down-regulators or did not affect Mir155 reporter expression |  |
| OC(Cn1cncn1)(Cn1cncn1)c1ccc(F)cc1F [fluconazole, reference compound] |  |  |  | either modest down-regulators or did not affect Mir155 reporter expression |  |
| CC(=O)N1CCN(c2ccc(OCC3COC(Cn4ccnc4)(c4ccc(Cl)cc4Cl)O3)cc2)CC1 (stereo not shown) [ketoconazole, reference compound] |  |  |  | either modest down-regulators or did not affect Mir155 reporter expression |  |
| Clc1cccc(C(c2ccc3[nH]cnc3c2)n2ccnc2)c1 (stereo not shown) [liarozole, reference compound] |  |  |  | either modest down-regulators or did not affect Mir155 reporter expression |  |
